# Experimental data: patent US12115178B2, “Acylated active agents and methods of their use for the treatment of autoimmune disorders” (Flagship Pioneering Innovations V, Inc., priority 2018, dated 2024)
# Structures can show the parent of a compound that is named as a salt.
# Columns and labels:
# [1] = Assay 2. Stability in Simulated Intestinal Fluid (SIF); type: in vitro ADME; conditions: SIF pH 6.7 with pancreatin, 1 μM, 37° C.
# Procedure, shortened: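 Compounds at 1 µM (from 1 mM DMSO stock) were incubated at 37 °C with agitation in simulated intestinal fluid: FaSSIF in pH 6.7 phosphate buffer with pancreatin. Aliquots taken from T0 onward were quenched with acetonitrile and analyzed by LC/MS for degradation rate.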
# [2] = test system: type II collagen arthritis; assay: In vivo rheumatoid arthritis model (semi-established type II collagen arthritis); parameters: species or system Lewis rats; conditions: for Mean Ankle Diameter AUC (mm*day) / Mean Ankle Periosteal Bone width (um) / Mean Knee Inflammation score (0-5) / Mean Terminal hind paw weights / Mean body weight change, day −1 to 21 (%) / Relative Spleen to Body Weight (Mean) / Mean Ankle Bone Resorption score (0-5) / Mean Ankle Cartilage Damage score (0-5) / Mean Ankle Pannus score (0-5) / Mean Ankle Periosteal Bone score (0-5) / Mean Ankle inflammation score (0-5) / Mean Knee Bone Resorption score (0-5) / Mean Knee Cartilage Damage score (0-5) / Mean Knee Pannus score (0-5) / Serum IgG: rats; for Mean Ankle Bone Resorption score (0-5) / Mean Ankle Cartilage Damage score (0-5) / Mean Ankle Pannus score (0-5) / Mean Ankle Periosteal Bone score (0-5) / Mean Ankle inflammation score (0-5) / Mean Knee Bone Resorption score (0-5) / Mean Knee Cartilage Damage score (0-5) / Mean Knee Pannus score (0-5): 0 = normal, 5 = severe; for Serum IgG: terminal serum ELISA for anti-type II collagen antibodies
# Description: A study was conducted to determine the efficacy of test articles dosed by the oral (PO) route for inhibition of the inflammation (paw swelling), cartilage destruction, and bone resorption that occurs in semi-established type II collagen arthritis in female Lewis rats. Rats (10 per group) were injected intradermally (ID) with porcine type II collagen to induce arthritis; one group of rats (4 per group) served as vehicle-treated naïve controls. […] Positive controls were treated PO, BID with the reference compound Tofacitinib citrate (10 mg/kg). The rats were euthanized for necropsy on study day 21 (animals #1-5 in each group, animals #1-2 in naïve group) or 22 (animals #6-10 in each group, animals #3-4 in naïve group). Efficacy evaluation was based on animal body weights (Table 9), daily ankle caliper measurements (FIG. 4), ankle diameter expressed as area under the curve (AUC) (Table 10), terminal hind paw weights (Table 11), histopathologic evaluation of hind paws (Ankle Inflammation score: Table 12, Ankle Pannus score: Table 13, Ankle Cartilage Damage score: Table 14, Ankle Bone Resorption score: Table 15, Ankle Periosteal Bone score: Table 16, Ankle Periosteal Bone Width: Table 17) and knees (Knee Inflammation score: Table 18, Knee Pannus score: Table 19, Knee Cartilage Damage score: Table 20, Knee Bone Resorption score: Table 21), and relative spleen to body weight ratio (Table 22). Terminal serum was analyzed by enzyme-linked immunosorbent assay (ELISA) for anti-type II collagen antibodies (IgG) (Table 23). […] Statistics were conducted using ordinary one-way ANOVA with Dunnett's multiple comparison correction in GraphPad Prism.
# [3] = Assay 1. Stability in Simulated Gastric Fluid (SGF); type: in vitro ADME; conditions: SGF pH 1.6 with pepsin, 1 μM, 37° C.
# Procedure, shortened: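 Compound at 1 μM final (from 1 mM DMSO stock) incubated at 37° C in SGF: NaCl medium at pH 1.6 with FaSSIF powder and 0.1 mg/mL pepsin, prepared fresh. Aliquots taken at T0 and regular intervals, quenched with equal volume acetonitrile; LC/MS gives degradation rate.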
# [4] = Assay 3. In vitro Colonic Material Stability Assay; type: in vitro ADME; conditions: colonic material slurry, anaerobic, 1 or 10 μM
compound,measurement,setting,value
"CCCC(=O)Oc1cc(OC(=O)CCC)c2c(=O)c(OC(=O)CCC)c(-c3ccc(OC(=O)CCC)c(OC(=O)CCC)c3)oc2c1 [Compound 5, [2-butanoyloxy-4-[3,5,7-tri(butanoyloxy)-4-oxo-chromen-2-yl]phenyl]butanoate]",Assay 2 (SIF) (% @ Remaining 4 hours),[1],B (25-75% of the tested compound remaining)
same,Mean Ankle Diameter AUC (mm*day),[2]; 100 mg/kg PO BID,89.38 mm*day
same,Mean Ankle Periosteal Bone width (um),[2]; 100 mg/kg PO BID,510.30 um
same,Mean Knee Inflammation score (0-5),[2]; 100 mg/kg PO BID,5.23
same,Mean Terminal hind paw weights,[2]; 100 mg/kg PO BID,2.3990 g
same,"Mean body weight change, day −1 to 21 (%)",[2]; 100 mg/kg PO BID,−7.1%
same,Relative Spleen to Body Weight (Mean),[2]; 100 mg/kg PO BID,0.2453
same,Mean Ankle Bone Resorption score (0-5),[2]; 100 mg/kg PO BID,2.53
same,Mean Ankle Cartilage Damage score (0-5),[2]; 100 mg/kg PO BID,3.55
same,Mean Ankle Pannus score (0-5),[2]; 100 mg/kg PO BID,2.53
same,Mean Ankle Periosteal Bone score (0-5),[2]; 100 mg/kg PO BID,2.68
same,Mean Ankle inflammation score (0-5),[2]; 100 mg/kg PO BID,2.3990
same,Mean Knee Bone Resorption score (0-5),[2]; 100 mg/kg PO BID,2.08
same,Mean Knee Cartilage Damage score (0-5),[2]; 100 mg/kg PO BID,2.93
same,Mean Knee Pannus score (0-5),[2]; 100 mg/kg PO BID,2.08
same,Serum IgG,[2]; 100 mg/kg PO BID,5937.67 µg/mL
same,Mean Ankle Diameter AUC (mm*day),[2]; 500 mg/kg PO BID,93.57 mm*day
same,Mean Ankle Periosteal Bone width (um),[2]; 500 mg/kg PO BID,699.30 um
same,Mean Knee Inflammation score (0-5),[2]; 500 mg/kg PO BID,5.65
same,Mean Terminal hind paw weights,[2]; 500 mg/kg PO BID,2.3994 g
same,"Mean body weight change, day −1 to 21 (%)",[2]; 500 mg/kg PO BID,−10.1%
same,Relative Spleen to Body Weight (Mean),[2]; 500 mg/kg PO BID,0.2534
same,Mean Ankle Bone Resorption score (0-5),[2]; 500 mg/kg PO BID,3.33
same,Mean Ankle Cartilage Damage score (0-5),[2]; 500 mg/kg PO BID,4.45
same,Mean Ankle Pannus score (0-5),[2]; 500 mg/kg PO BID,3.33
same,Mean Ankle Periosteal Bone score (0-5),[2]; 500 mg/kg PO BID,3.70
same,Mean Ankle inflammation score (0-5),[2]; 500 mg/kg PO BID,2.3994
same,Mean Knee Bone Resorption score (0-5),[2]; 500 mg/kg PO BID,2.65
same,Mean Knee Cartilage Damage score (0-5),[2]; 500 mg/kg PO BID,4.00
same,Mean Knee Pannus score (0-5),[2]; 500 mg/kg PO BID,2.65
same,Serum IgG,[2]; 500 mg/kg PO BID,5350.41 µg/mL
same,"effects on spleen weights relative to body weight, ankle diameter AUC, ankle pannus score, ankle bone resorption score, and ankle periosteal bone score","[2]; rat collagen arthritis, PO BID",significant beneficial effects
"C[C@@H]1CCN(C(=O)CC#N)C[C@@H]1N(C)c1ncnc2[nH]ccc12 [Tofacitinib citrate, reference compound]",Mean Ankle Diameter AUC (mm*day),[2]; 10 mg/kg PO BID,73.82 mm*day
same,Mean Ankle Periosteal Bone width (um),[2]; 10 mg/kg PO BID,0.00 um
same,Mean Knee Inflammation score (0-5),[2]; 10 mg/kg PO BID,0.10
same,Mean Terminal hind paw weights,[2]; 10 mg/kg PO BID,1.4321 g
same,"Mean body weight change, day −1 to 21 (%)",[2]; 10 mg/kg PO BID,20.2%
same,Relative Spleen to Body Weight (Mean),[2]; 10 mg/kg PO BID,0.1796
same,Mean Ankle Bone Resorption score (0-5),[2]; 10 mg/kg PO BID,0.00
same,Mean Ankle Cartilage Damage score (0-5),[2]; 10 mg/kg PO BID,0.00
same,Mean Ankle Pannus score (0-5),[2]; 10 mg/kg PO BID,0.00
same,Mean Ankle Periosteal Bone score (0-5),[2]; 10 mg/kg PO BID,0.00
same,Mean Ankle inflammation score (0-5),[2]; 10 mg/kg PO BID,1.4321
same,Mean Knee Bone Resorption score (0-5),[2]; 10 mg/kg PO BID,0.00
same,Mean Knee Cartilage Damage score (0-5),[2]; 10 mg/kg PO BID,0.00
same,Mean Knee Pannus score (0-5),[2]; 10 mg/kg PO BID,0.00
same,Serum IgG,[2]; 10 mg/kg PO BID,2524.70 µg/mL
"CCC(=O)O[C@@H]1[C@@H](OC(=O)CC)[C@H](OC(=O)Cc2c[nH]c3ccccc23)OC[C@H]1OC(=O)CC [Compound 76, (2S,3R,4S,5R)-2-{[2-(1H-indol-3-yl)acetyl]oxy}-4,5-bis(propanoyloxy)oxan-3-yl propanoate]",Assay 1 (SGF) (% Remaining @ 1 hour),[3],C (>75% of the tested compound remaining)
same,Assay 2 (SIF) (% @ Remaining 4 hours),[1],A (<25% of the tested compound remaining)
same,Assay 3 (% Remaining at 24 h),[4],A (<25% of the tested compound remaining)
"CCCC(=O)O[C@@H]1[C@@H](OC(=O)CCC)[C@H](C)O[C@@H](Oc2ccccc2C(=O)O)[C@@H]1OC(=O)CCC [Compound 40, 2-(((2S,3R,4R,5S,6S)-3,4,5-tris(butyryloxy)-6-methyltetrahydro-2H-pyran-2-yl)oxy)benzoic acid]",Assay 1 (SGF) (% Remaining @ 1 hour),[3],C (>75% of the tested compound remaining)
same,Assay 2 (SIF) (% @ Remaining 4 hours),[1],C (>75% of the tested compound remaining)
same,Assay 3 (% Remaining at 24 h),[4],C (>75% of the tested compound remaining)
"CCC(=O)O[C@H]1[C@H](OC(=O)Cc2c[nH]c3ccccc23)OC[C@@H](OC(=O)CC)[C@H]1OC(=O)CC [Compound 106, (2S,3R,4R,5R)-2-{[2-(1H-indol-3-yl)acetyl]oxy}-4,5-bis(propanoyloxy)oxan-3-yl propanoate]",Assay 1 (SGF) (% Remaining @ 1 hour),[3],C (>75% of the tested compound remaining)
same,Assay 2 (SIF) (% @ Remaining 4 hours),[1],A (<25% of the tested compound remaining)
same,Assay 3 (% Remaining at 24 h),[4],A (<25% of the tested compound remaining)
"CCC(=O)O[C@H]1[C@H](OC)OC[C@@H](OC(=O)CC)[C@H]1OC(=O)CC [Compound 51, (2R,3R,4R,5R)-2-methoxy-3,5-bis(propanoyloxy)oxan-4-yl propanoate]",Assay 1 (SGF) (% Remaining @ 1 hour),[3],C (>75% of the tested compound remaining)
same,Assay 2 (SIF) (% @ Remaining 4 hours),[1],C (>75% of the tested compound remaining)
same,Assay 3 (% Remaining at 24 h),[4],B (25-75% of the tested compound remaining)
"CCCC(=O)OC[C@H]1O[C@@H](OC(=O)CCc2c[nH]c3ccccc23)[C@H](OC(=O)CCC)[C@@H](OC(=O)CCC)[C@@H]1OC(=O)CCC [Compound 85, [(2R,3R,4S,5R,6S)-3,4,5-tris(butanoyloxy)-6-{[3-(1H-indol-3-yl)propanoyl]oxy}oxan-2-yl]methyl butanoate]",Assay 1 (SGF) (% Remaining @ 1 hour),[3],B (25-75% of the tested compound remaining)
same,Assay 2 (SIF) (% @ Remaining 4 hours),[1],A (<25% of the tested compound remaining)
same,Assay 3 (% Remaining at 24 h),[4],A (<25% of the tested compound remaining)
"CCC(=O)O[C@@H]1O[C@H](C(=O)O)[C@@H](OC(=O)CC)[C@H](OC(=O)CC)[C@H]1OC(=O)CC [Compound 47, (2S,3S,4S,5R,6S)-3,4,5,6-tetrakis(propanoyloxy)oxane-2-carboxylic acid]",Assay 1 (SGF) (% Remaining @ 1 hour),[3],C (>75% of the tested compound remaining)
same,Assay 2 (SIF) (% @ Remaining 4 hours),[1],A (<25% of the tested compound remaining)
same,Assay 3 (% Remaining at 24 h),[4],A (<25% of the tested compound remaining)
"CCC(=O)O[C@@H]1[C@@H](OC(=O)CC)[C@H](OC(=O)CCc2c[nH]c3ccccc23)OC[C@@H]1OC(=O)CC [Compound 74, (2S,3R,4S,5S)-3,4,5-tris(propanoyloxy)oxan-2-yl 3-(1H-indol-3-yl)propanoate]",Assay 1 (SGF) (% Remaining @ 1 hour),[3],C (>75% of the tested compound remaining)
same,Assay 2 (SIF) (% @ Remaining 4 hours),[1],A (<25% of the tested compound remaining)
same,Assay 3 (% Remaining at 24 h),[4],A (<25% of the tested compound remaining)
"CC(=O)OC[C@H]1O[C@@H](OC(C)=O)[C@H](N)[C@@H](OC(C)=O)[C@@H]1OC(C)=O [Compound 162, (2S,3R,4R,5S,6R)-6-(acetoxymethyl)-3-aminotetrahydro-2H-pyran-2,4,5-triyl triacetate]",Assay 1 (SGF) (% Remaining @ 1 hour),[3],C (>75% of the tested compound remaining)
same,Assay 2 (SIF) (% @ Remaining 4 hours),[1],A (<25% of the tested compound remaining)
same,Assay 3 (% Remaining at 24 h),[4],C (>75% of the tested compound remaining)
"CCC(=O)OC[C@H]1O[C@@H](OC(=O)CCc2c[nH]c3ccccc23)[C@H](OC(=O)CC)[C@@H](OC(=O)CC)[C@@H]1OC(=O)CC [Compound 112, [(2R,3R,4S,5R,6S)-6-{[3-(1H-indol-3-yl)propanoyl]oxy}-3,4,5-tris(propanoyloxy)oxan-2-yl]methyl propanoate]",Assay 1 (SGF) (% Remaining @ 1 hour),[3],C (>75% of the tested compound remaining)
same,Assay 2 (SIF) (% @ Remaining 4 hours),[1],A (<25% of the tested compound remaining)
same,Assay 3 (% Remaining at 24 h),[4],A (<25% of the tested compound remaining)
"O=C(CCc1c[nH]c2ccccc12)O[C@@H]1OC[C@@H](OC(=O)CCc2c[nH]c3ccccc23)[C@@H](OC(=O)CCc2c[nH]c3ccccc23)[C@H]1OC(=O)CCc1c[nH]c2ccccc12 [Compound 80, (2S,3R,4R,5R)-3,4,5-tris({[3-(1H-indol-3-yl)propanoyl]oxy})oxan-2-yl 3-(1H-indol-3-yl)propanoate]",Assay 1 (SGF) (% Remaining @ 1 hour),[3],C (>75% of the tested compound remaining)
same,Assay 2 (SIF) (% @ Remaining 4 hours),[1],A (<25% of the tested compound remaining)
same,Assay 3 (% Remaining at 24 h),[4],A (<25% of the tested compound remaining)
